Assay results taken from US20050026223A1, “Method and compositions for increasing bone mass” (The Board of Trustees of the University of Arkansas, priority 1999, published 2005).

Experiments:
[1] = tested on: osteoblastic cells derived from murine calvaria; assay: Etoposide-induced apoptosis of osteoblastic cells derived from murine calvaria (trypan blue uptake); format: cell-based; conditions: for Lowest Effective Concentration: inhibition of etoposide-induced osteoblast apoptosis, 1 hour pretreatment, trypan blue after 6 hours; for Suppression by 10^−8 M Flutamide: suppression of the anti-apoptotic effect by the androgen receptor antagonist flutamide; for Anti-apoptotic effect on osteoblastic cells after ICI182,780: compound 10^−8 M, 1 h pretreatment with ICI182,780 10^−7 M
Method: Osteoblastic cells derived from murine calvaria were pretreated with the sterols for 1 hour before the addition of the pro-apoptotic agent, etoposide. Apoptosis was determined after 6 hours by trypan blue uptake (Jilka et al, J. Bone and Min. Res. 13:793:802, 1998). * indicates p<0.05 versus etoposide alone, by analysis of variance (ANOVA) (Student-Newman-Keuls method).
Osteoblastic cells derived from murine calvaria were pretreated for 1 hour with the pure receptor antagonist ICI182,780 (10^−7 M) before the addition of the test agents (10^−8 M). Apoptosis was induced and quantified as described in FIG. 3. * indicates p<0.05 versus etoposide alone, by ANOVA (Student-Newman-Keuls method).
In this experiment, osteoblastic cells were derived from murine calvaria and were pretreated with the sterols for 1 hour before the addition of the pro-apoptotic agent, etoposide.
In these experiments, cells were pretreated with the indicated concentrations of the various compounds for 1 hour, in the absence or presence of the androgen receptor antagonist flutamide, before the addition of the proapoptotic agent etoposide. Apoptosis was determined after 6 hours by trypan blue uptake as described in FIG. 3.

MLO-Y4 osteocytic cells [2] = assay: Etoposide-induced apoptosis of MLO-Y4 osteocytic cells (trypan blue uptake); format: cell-based, murine; conditions: for Inhibition of etoposide-induced apoptosis of osteocytic cell line: 1 h pretreatment before etoposide, trypan blue after 6 h; for Antiapoptotic effect on osteocytes after ICI182,780: 1 h pretreatment with ICI182,780 10^−7 M
Method: Cells were pretreated with the indicated concentrations of the compounds for 1 hour before the addition of the pro-apoptotic agent etoposide. Apoptosis was determined after 6 hour by trypan blue uptake as described in FIG. 3. * indicates p<0.05 versus etoposide alone, by ANOVA (Student-Newman-Keuls method).
MLO-Y4 cells were pretreated for 1 hour with the pure receptor antagonist ICI182,780 (10^−7 M) before the addition of the test agents (10^−8 M). Apoptosis was induced and quantified as described in FIG. 3. * indicates p<0.05 versus etoposide alone, by ANOVA (Student-Newman-Keuls method).
In this experiment, MLO-Y4 cells were pretreated with the indicated concentrations of the various compounds for 1 h before the addition of the pro-apoptotic agent, etoposide. Apoptosis was determined after 6 h by trypan blue uptake as described in FIG. 3.

wild type HeLa cells = assay: Etoposide-induced apoptosis of wild type HeLa cells; format: cell-based, human; conditions: compound 10^−8 M 1 h, etoposide 5×10^−5 M 6 hour
Description: CMV promoter alone and CMV promoter-driven cDNA for mERα or mErβ were stably transfected into HeLa cells. […] Cells were trypsinized, pelleted and trypan blue positive cells enumerated. Each bar represents mean of duplicate experiments ±SEM. *P<0.02 versus etoposide alone.
(§1) In this experiment, instead of calvaria cells, human HeLa cells which contain undetectable, if any, estrogen receptor were used. HeLa cells were stably transfected with either a CMV promoter-driven cDNA for the murine estrogen receptor-alpha (mERα) or a CMV promoter-driven cDNA for the murine estrogen receptor-beta (mERβ). […] Cells were trypsinized, pelleted and trypan blue positive cells were enumerated.

[3] = tested on: HeLa cells transfected with the estrogen receptor α (mERα); assay: Etoposide-induced apoptosis of HeLa cells stably transfected with mERα; format: cell-based, human; conditions: compound 10^−8 M 1 h, etoposide 5×10^−5 M 6 hour
Description: (§2) CMV promoter alone and CMV promoter-driven cDNA for mERα or mErβ were stably transfected into HeLa cells. […] Cells were trypsinized, pelleted and trypan blue positive cells enumerated.
as §1

[4] = tested on: HeLa cells transfected with estrogen receptor β (mERβ); assay: Etoposide-induced apoptosis of HeLa cells stably transfected with mERβ; format: cell-based, human; conditions: compound 10^−8 M 1 h, etoposide 5×10^−5 M 6 hour
Description: as §2, §1

[5] = tested on: extracellular signal regulated kinases (ERKs) 1 and 2; assay: Western blot of phosphorylated ERK1/2 in MLO-Y4 osteocytic cells; format: cell-based, murine; conditions: for Activation of ERKs (phosphorylated fraction of ERK1/2): 10^−8 M, 5, 15 or 30 minutes; for Ability to activate ERKs in the presence of PD98059: compound 10^−8 M, 5 minutes, 50 μM PD98059
Method: (§3) MLO-Y4 osteocytic cells were incubated for 25 minutes in serum-free medium. […] Cell lysates were prepared and proteins were separated by electrophoresis in polyacrylamide gels and transferred to PVDF membranes. Western blotting was performed using a specific antibody recognizing phosphorylated ERKs 1 and 2, followed by reblotting with an antibody recognizing total ERKs. Blots were developed by enhanced chemiluminescence.
as §3, with “MLO-Y4” for “MLO-Y4 osteocytic”, “medium in the presence or absence of 50 μM PD98059.” for “medium.”
as §3, with “In this experiment, MLO-Y4” for “MLO-Y4”, “extracellular signal regulated kinases” for “ERKs”, “extracellular signal regulated kinases.” for “ERKs.”, “chemiluminescence. […] This effect is too rapid to be accounted for by the classical mechanism of estrogen action.” for “chemiluminescence.”
as §3, with “In this experiment, MLO-Y4” for “MLO-Y4”, “medium in the presence or absence of 50 μM PD98059.” for “medium.”, “extracellular signal regulated kinases” for “ERKs”, “extracellular signal regulated kinases.” for “ERKs.”

MLO-Y4 osteocytic cells [6] = assay: Dexamethasone-induced apoptosis of MLO-Y4 osteocytic cells with PD98059; format: cell-based, murine; conditions: compound 10^−8 M; PD98059 1 hour; dexamethasone 6 hours
Method: Apoptosis was induced by incubation with the pro-apoptotic agent dexamethasone for 6 hour and quantified as described in FIG. 3. * indicates p<0.05 versus the corresponding control group without dexamethasone, by ANOVA (Student-Newman-Keuls method).
That indeed the anti-apoptotic effect of all the compounds tested herein was mediated via activation of ERKs was established by the results of the experiments shown in FIG. 10. […] Apoptosis was induced by incubation with the pro-apoptotic agent dexamethasone for 6 hours and quantified as described in FIG. 3.

osteoclasts = conditions: increased from approximately 0.5%; cited from earlier work
[7] = rats, intravenously; cited from earlier work
[8] = human iliac trabecular bone, after one year of treatment; cited from earlier work
[9] = for at least four years; cited from earlier work
osteoblasts = conditions: intermittent administration in mice; decreased from 1.7-2.2%; cited from earlier work

C[C@]12CCC(=O)C=C1CC[C@@H]1[C@@H]2CC[C@]2(C)C(=O)CC[C@@H]12 [4-androstene-3,17-dione]
Lowest Effective Concentration [1]: 10^−8 M
Suppression by 10^−8 M Flutamide [1]: yes

C[C@]12CC[C@H]3[C@@H](CC=C4C[C@@H](O)CC[C@@]43C)[C@@H]1CC[C@@H]2O [5-androstene-3β-17_-diol]
Lowest Effective Concentration [1]: 10^−8 M
Suppression by 10^−8 M Flutamide [1]: yes

C[C@]12CCC(=O)C[C@@H]1CC[C@@H]1[C@@H]2CC[C@]2(C)[C@@H](O)CC[C@@H]12 [5-α-dihydrotestosterone]
Lowest Effective Concentration [1]: 10^−9 M
Suppression by 10^−8 M Flutamide [1]: yes

C[C@]12CCC(=O)C[C@@H]1CC[C@@H]1[C@@H]2CC[C@]2(C)[C@@H](O)CC[C@@H]12 [5-β-dihydrotestosterone]
Lowest Effective Concentration [1]: 10^−10 M
Suppression by 10^−8 M Flutamide [1]: yes

C[C@]12CC[C@@H]3c4ccc(O)cc4CC[C@H]3[C@@H]1CC[C@H]2O [17α-estradiol]
Anti-apoptotic effect on osteoblastic cells after ICI182,780 [1]: abrogated
Inhibition of etoposide-induced apoptosis of osteocytic cell line (MLO-Y4 osteocytic cells [2]): dose-dependently inhibited
Antiapoptotic effect on osteocytes after ICI182,780 (MLO-Y4 osteocytic cells [2]): abrogated
Effect on etoposide-induced apoptosis (wild type HeLa cells): none of the three compounds had any effect
Effect on etoposide-induced apoptosis [3]: potently inhibited
Effect on etoposide-induced apoptosis [4]: potently inhibited
Activation of ERKs (phosphorylated fraction of ERK1/2) [5]: activated
Ability to activate ERKs in the presence of PD98059 [5]: abrogated
Anti-apoptotic effect after PD98059 pretreatment (MLO-Y4 osteocytic cells [6]): prevented the anti-apoptotic effect

C[C@]12CC[C@@H]3c4ccc(O)cc4CC[C@H]3[C@@H]1CC[C@@H]2O [17β-estradiol, reference compound]
Inhibition of etoposide-induced osteoblast apoptosis ([1]; 1 hour pretreatment before etoposide): prevented apoptosis of osteoblastic cells isolated from murine calvaria, in a dose dependent manner
Anti-apoptotic effect on osteoblastic cells after ICI182,780 [1]: abrogated
Inhibition of etoposide-induced apoptosis of osteocytic cell line (MLO-Y4 osteocytic cells [2]): dose-dependently inhibited
Antiapoptotic effect on osteocytes after ICI182,780 (MLO-Y4 osteocytic cells [2]): abrogated
Effect on etoposide-induced apoptosis (wild type HeLa cells): none of the three compounds had any effect
Effect on etoposide-induced apoptosis [3]: potently inhibited
Effect on etoposide-induced apoptosis [4]: potently inhibited
Activation of ERKs (phosphorylated fraction of ERK1/2) [5]: activated
Ability to activate ERKs in the presence of PD98059 [5]: abrogated
Anti-apoptotic effect after PD98059 pretreatment (MLO-Y4 osteocytic cells [6]): prevented the anti-apoptotic effect
Apoptosis of osteoclasts (osteoclasts): ≤ 2.7%

C[C@]12CC[C@H](OS(=O)(=O)O)CC1=CC[C@@H]1[C@@H]2CC[C@]2(C)C(=O)CC[C@@H]12 [Dehydroisoandrosterone-3-sulfate (DHES), Dehydroisoandrosterone-3-sulfate]
Lowest Effective Concentration [1]: 10^−8 M
Suppression by 10^−8 M Flutamide [1]: no*

CC(=O)N[C@@H](CS)C(=O)O [N-acetylcysteine, acetamido-mercaptopropionic acid]
LD50 [7]: 1140 mg/kg

C[C@]1(O)CC[C@H]2[C@@H]3CCC4=CC(=O)CCC4=C3C=C[C@@]21C [RU1881]
Lowest Effective Concentration [1]: 10^−8 M
Suppression by 10^−8 M Flutamide [1]: yes

C[C@]12CC[C@H]3[C@@H](CCC4=CC(=O)CC[C@@]43C)[C@@H]1CC[C@@H]2O [Testosterone]
Lowest Effective Concentration [1]: 10^−9 M
Suppression by 10^−8 M Flutamide [1]: yes

CC(O)(P(=O)(O)O)P(=O)(O)O [etidronate]
Reduction of resorption depth [8]: ~30%

[F-].[Na+] [sodium fluoride]
Increase of vertebral bone mass [9]: 10 % a year

B1: PTH: parathyroid hormone, an agent known for its role in calcium homeostasis (protein, UniProt P01270 32-115, looked up)
Parathyroid hormone: SVSEIQLMHNLGKHLNSMERVEWLRKKLQDVHNFVALGAPLAPRDAGSQRPRKKEDNVLVESHEKSLGEADKADVNVLTKAKSQ
modifications: Parathyroid hormone
notes: parathyroid hormone, an agent known for its role in calcium homeostasis
Prevalence of osteoblast apoptosis (osteoblasts): 0.1-0.4%
